Test [1] deals with T1, gastric inhibitory peptide receptor (GIPR) (Homo sapiens, UniProt P48546).
T1 sequence (P48546 22-466): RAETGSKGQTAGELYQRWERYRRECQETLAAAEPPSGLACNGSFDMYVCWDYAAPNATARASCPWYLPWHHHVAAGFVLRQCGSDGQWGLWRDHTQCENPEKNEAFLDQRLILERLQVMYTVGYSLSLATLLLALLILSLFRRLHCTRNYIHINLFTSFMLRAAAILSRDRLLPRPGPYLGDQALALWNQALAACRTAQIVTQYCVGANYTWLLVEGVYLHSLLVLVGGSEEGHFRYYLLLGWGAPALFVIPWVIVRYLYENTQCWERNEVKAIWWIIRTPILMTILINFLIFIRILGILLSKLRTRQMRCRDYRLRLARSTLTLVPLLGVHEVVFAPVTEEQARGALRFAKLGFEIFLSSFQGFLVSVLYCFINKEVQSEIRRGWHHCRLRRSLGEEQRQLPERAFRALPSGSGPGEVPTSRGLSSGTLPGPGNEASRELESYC
The test is described as follows: cAMP pharmacological functional assay in presence of casein, hGIPR. The settings on record: HEK293 cells expressing hGIPR, 0.1% Casein, geometric mean; read-out: hGIPR cAMP Rel EC50 nM (SEM, n). Type of test: cell-based.

Test [2] deals with human GLP-1 receptor (GLP-1R) (Homo sapiens, UniProt P43220). The test is described as follows: cAMP pharmacological functional assay in presence of casein, hGLP-1R. Type of test: cell-based. The settings on record: HEK293 cells expressing hGLP-1R, 0.1% Casein, geometric mean; read-out: hGLP1R cAMP Rel EC50 nM (SEM, n).
Chain of human GLP-1 receptor (GLP-1R) (P43220 24-463): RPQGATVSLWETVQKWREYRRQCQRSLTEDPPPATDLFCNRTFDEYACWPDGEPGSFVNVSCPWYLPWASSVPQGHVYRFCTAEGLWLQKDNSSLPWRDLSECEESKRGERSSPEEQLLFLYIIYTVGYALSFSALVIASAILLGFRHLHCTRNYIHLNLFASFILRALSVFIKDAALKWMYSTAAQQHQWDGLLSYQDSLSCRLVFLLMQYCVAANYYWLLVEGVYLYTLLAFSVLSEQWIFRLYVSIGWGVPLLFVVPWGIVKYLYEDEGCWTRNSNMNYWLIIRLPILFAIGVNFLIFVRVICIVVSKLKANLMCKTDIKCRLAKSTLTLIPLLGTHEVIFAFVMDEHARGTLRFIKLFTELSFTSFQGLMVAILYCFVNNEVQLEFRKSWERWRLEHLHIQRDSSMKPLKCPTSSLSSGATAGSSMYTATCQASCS

Square brackets hold non-standard residues; d marks the D form. Peptide text beside a SMILES is read from it. αMePhe(2-F) = C[C@](N)(Cc1ccccc1F)C(=O)O; αMeY = C[C@](N)(Cc1ccc(O)cc1)C(=O)O; 4Pal = N[C@@H](Cc1ccncc1)C(=O)O; αMeL = CC(C)C[C@](C)(N)C(=O)O; Orn = NCCC[C@H](N)C(=O)O; Aib = CC(C)(N)C(=O)O

The term EC50 denotes the concentration needed to bring the measured effect to its halfway point.

Consider `CC[C@H](C)[C@H](NC(=O)[C@H](CC(C)C)NC(=O)[C@H](Cc1ccc(O)cc1)NC(=O)[C@@H](CCC(=O)O)NC(=O)[C@@H](NC(=O)[C@H](Cc1ccccc1)NC(=O)[C@H](CCC(=O)O)NC(=O)C(C)(C)NC(=O)[C@H](CCC(N)=O)NC(=O)[C@H](C)NC(=O)[C@H](CCCCN)NC(=O)[C@H](CCCN)NC(=O)[C@H](CC(=O)O)NC(=O)[C@H](CC(C)C)NC(=O)[C@](C)(CC(C)C)NC(=O)[C@@H](NC(=O)[C@H](CO)NC(=O)[C@H](Cc1ccc(O)cc1)NC(=O)[C@H](CC(=O)O)NC(=O)[C@H](CO)NC(=O)[C@@H](NC(=O)[C@](C)(Cc1ccccc1F)NC(=O)[C@@H](NC(=O)CNC(=O)[C@H](CCC(=O)O)NC(=O)C(C)(C)NC(=O)[C@@H](N)Cc1ccc(O)cc1)[C@@H](C)O)[C@@H](C)O)[C@@H](C)CC)[C@@H](C)CC)C(=O)N[C@@H](CCC(=O)O)C(=O)NCC(=O)NCC(=O)N1CCC[C@H]1C(=O)N[C@@H](CO)C(=O)N[C@@H](CO)C(=O)NCC(=O)N[C@@H](C)C(=O)N1CCC[C@H]1C(=O)N1CCC[C@H]1C(=O)N1CCC[C@H]1C(=O)N[C@@H](CO)C(=O)N[C@@H](CS)C(N)=O` [Example 282] (H-Y[Aib]EGT[αMePhe(2-F)]TSDYSI[αMeL]LD[Orn]KAQ[Aib]EFI[dE]YLIEGGPSSGAPPPSC-NH2), for which the EC50 in test [1] was 0.323 nM; in test [2], 0.247 nM.

Turning to `CC[C@H](C)[C@H](NC(=O)[C@H](CC(C)C)NC(=O)[C@H](Cc1ccc(O)cc1)NC(=O)[C@@H](CCC(=O)O)NC(=O)[C@@H](NC(=O)[C@H](Cc1ccccc1)NC(=O)[C@H](CCC(=O)O)NC(=O)C(C)(C)NC(=O)[C@H](CCC(N)=O)NC(=O)[C@H](C)NC(=O)[C@H](CCC(N)=O)NC(=O)[C@H](CCCN)NC(=O)[C@H](CC(=O)O)NC(=O)[C@H](CC(C)C)NC(=O)[C@](C)(CC(C)C)NC(=O)[C@@H](NC(=O)[C@H](CO)NC(=O)[C@H](Cc1ccc(O)cc1)NC(=O)[C@H](CC(=O)O)NC(=O)[C@H](CO)NC(=O)[C@@H](NC(=O)[C@](C)(Cc1ccccc1F)NC(=O)[C@@H](NC(=O)CNC(=O)[C@H](CCC(=O)O)NC(=O)C(C)(C)NC(=O)[C@@H](N)Cc1ccc(O)cc1)[C@@H](C)O)[C@@H](C)O)[C@@H](C)CC)[C@@H](C)CC)C(=O)N[C@@H](CCC(=O)O)C(=O)NCC(=O)NCC(=O)N1CCC[C@H]1C(=O)N[C@@H](CO)C(=O)N[C@@H](CO)C(=O)NCC(=O)N[C@@H](C)C(=O)N1CCC[C@H]1C(=O)N1CCC[C@H]1C(=O)N1CCC[C@H]1C(=O)N[C@@H](CO)C(=O)N[C@@H](CS)C(N)=O` [Example 283] (H-Y[Aib]EGT[αMePhe(2-F)]TSDYSI[αMeL]LD[Orn]QAQ[Aib]EFI[dE]YLIEGGPSSGAPPPSC-NH2), the concentration giving a half-maximal response (EC50) in test [1] worked out at 0.301 nM; in test [2], 0.155 nM.

On to `CC[C@H](C)[C@H](NC(=O)[C@H](CC(C)C)NC(=O)[C@](C)(Cc1ccc(O)cc1)NC(=O)[C@@H](CCC(=O)O)NC(=O)[C@@H](NC(=O)[C@H](Cc1ccccc1)NC(=O)[C@H](CCC(=O)O)NC(=O)C(C)(C)NC(=O)[C@H](CCC(N)=O)NC(=O)[C@H](C)NC(=O)[C@H](CCCCN)NC(=O)[C@H](CCCN)NC(=O)[C@H](CC(=O)O)NC(=O)[C@H](CC(C)C)NC(=O)[C@](C)(CC(C)C)NC(=O)[C@@H](NC(=O)[C@H](CO)NC(=O)[C@H](Cc1ccncc1)NC(=O)[C@H](CC(=O)O)NC(=O)[C@H](CO)NC(=O)[C@@H](NC(=O)[C@](C)(Cc1ccccc1F)NC(=O)[C@@H](NC(=O)CNC(=O)[C@H](CCC(=O)O)NC(=O)C(C)(C)NC(=O)[C@@H](N)Cc1ccc(O)cc1)[C@@H](C)O)[C@@H](C)O)[C@@H](C)CC)[C@@H](C)CC)C(=O)N[C@@H](CCC(=O)O)C(=O)NCC(=O)NCC(=O)N1CCC[C@H]1C(=O)N[C@@H](CO)C(=O)N[C@@H](CO)C(=O)NCC(=O)N[C@@H](C)C(=O)N1CCC[C@H]1C(=O)N1CCC[C@H]1C(=O)N1CCC[C@H]1C(=O)N[C@@H](CO)C(N)=O` [Example 284] (H-Y[Aib]EGT[αMePhe(2-F)]TSD[4Pal]SI[αMeL]LD[Orn]KAQ[Aib]EFI[dE][αMeY]LIEGGPSSGAPPPS-NH2), for which the EC50 worked out at 0.113 nM in test [1] and 0.0462 nM in test [2].

Regarding `CC[C@H](C)[C@H](NC(=O)[C@H](CC(C)C)NC(=O)[C@](C)(Cc1ccc(O)cc1)NC(=O)[C@@H](CCC(=O)O)NC(=O)[C@@H](NC(=O)[C@H](Cc1ccccc1)NC(=O)[C@H](CCC(=O)O)NC(=O)C(C)(C)NC(=O)[C@H](CCC(N)=O)NC(=O)[C@H](C)NC(=O)[C@H](CCC(N)=O)NC(=O)[C@H](CCCN)NC(=O)[C@H](CC(=O)O)NC(=O)[C@H](CC(C)C)NC(=O)[C@](C)(CC(C)C)NC(=O)[C@@H](NC(=O)[C@H](CO)NC(=O)[C@H](Cc1ccncc1)NC(=O)[C@H](CC(=O)O)NC(=O)[C@H](CO)NC(=O)[C@@H](NC(=O)[C@](C)(Cc1ccccc1F)NC(=O)[C@@H](NC(=O)CNC(=O)[C@H](CCC(=O)O)NC(=O)C(C)(C)NC(=O)[C@@H](N)Cc1ccc(O)cc1)[C@@H](C)O)[C@@H](C)O)[C@@H](C)CC)[C@@H](C)CC)C(=O)N[C@@H](CCC(=O)O)C(=O)NCC(=O)NCC(=O)N1CCC[C@H]1C(=O)N[C@@H](CO)C(=O)N[C@@H](CO)C(=O)NCC(=O)N[C@@H](C)C(=O)N1CCC[C@H]1C(=O)N1CCC[C@H]1C(=O)N1CCC[C@H]1C(=O)N[C@@H](CO)C(N)=O` [Example 285] (H-Y[Aib]EGT[αMePhe(2-F)]TSD[4Pal]SI[αMeL]LD[Orn]QAQ[Aib]EFI[dE][αMeY]LIEGGPSSGAPPPS-NH2), the EC50 is 0.0884 nM in test [1] and 0.072 nM in test [2].

On to `CC[C@H](C)[C@H](NC(=O)[C@H](CC(C)C)NC(=O)[C@](C)(Cc1ccc(O)cc1)NC(=O)[C@@H](CCC(=O)O)NC(=O)[C@@H](NC(=O)[C@H](Cc1ccccc1)NC(=O)[C@H](CCC(=O)O)NC(=O)C(C)(C)NC(=O)[C@H](CCC(N)=O)NC(=O)[C@H](C)NC(=O)[C@H](CCCCN)NC(=O)[C@H](CCCN)NC(=O)[C@H](CC(=O)O)NC(=O)[C@H](CC(C)C)NC(=O)[C@](C)(CC(C)C)NC(=O)[C@@H](NC(=O)[C@H](CO)NC(=O)[C@H](Cc1ccncc1)NC(=O)[C@H](CC(=O)O)NC(=O)[C@H](CO)NC(=O)[C@@H](NC(=O)[C@](C)(Cc1ccccc1F)NC(=O)[C@@H](NC(=O)CNC(=O)[C@H](CCC(=O)O)NC(=O)C(C)(C)NC(=O)[C@@H](N)Cc1ccc(O)cc1)[C@@H](C)O)[C@@H](C)O)[C@@H](C)CC)[C@@H](C)CC)C(=O)N[C@@H](CCC(=O)O)C(=O)NCC(=O)NCC(=O)N1CCC[C@H]1C(=O)N[C@@H](CO)C(=O)N[C@@H](CO)C(=O)NCC(=O)N[C@@H](C)C(=O)N1CCC[C@H]1C(=O)N1CCC[C@H]1C(=O)N1CCC[C@H]1C(=O)N[C@@H](CO)C(=O)N[C@@H](CS)C(N)=O` [Example 286] (H-Y[Aib]EGT[αMePhe(2-F)]TSD[4Pal]SI[αMeL]LD[Orn]KAQ[Aib]EFI[dE][αMeY]LIEGGPSSGAPPPSC-NH2), for which the 50% effective concentration (EC50) is 0.184 nM in test [1] and 0.0602 nM in test [2].

Turning to `CC[C@H](C)[C@H](NC(=O)[C@H](CC(C)C)NC(=O)[C@](C)(Cc1ccc(O)cc1)NC(=O)[C@@H](CCC(=O)O)NC(=O)[C@@H](NC(=O)[C@H](Cc1ccccc1)NC(=O)[C@H](CCC(=O)O)NC(=O)C(C)(C)NC(=O)[C@H](CCC(N)=O)NC(=O)[C@H](C)NC(=O)[C@H](CCC(N)=O)NC(=O)[C@H](CCCN)NC(=O)[C@H](CC(=O)O)NC(=O)[C@H](CC(C)C)NC(=O)[C@](C)(CC(C)C)NC(=O)[C@@H](NC(=O)[C@H](CO)NC(=O)[C@H](Cc1ccncc1)NC(=O)[C@H](CC(=O)O)NC(=O)[C@H](CO)NC(=O)[C@@H](NC(=O)[C@](C)(Cc1ccccc1F)NC(=O)[C@@H](NC(=O)CNC(=O)[C@H](CCC(=O)O)NC(=O)C(C)(C)NC(=O)[C@@H](N)Cc1ccc(O)cc1)[C@@H](C)O)[C@@H](C)O)[C@@H](C)CC)[C@@H](C)CC)C(=O)N[C@@H](CCC(=O)O)C(=O)NCC(=O)NCC(=O)N1CCC[C@H]1C(=O)N[C@@H](CO)C(=O)N[C@@H](CO)C(=O)NCC(=O)N[C@@H](C)C(=O)N1CCC[C@H]1C(=O)N1CCC[C@H]1C(=O)N1CCC[C@H]1C(=O)N[C@@H](CO)C(=O)N[C@@H](CS)C(N)=O` [Example 287] (H-Y[Aib]EGT[αMePhe(2-F)]TSD[4Pal]SI[αMeL]LD[Orn]QAQ[Aib]EFI[dE][αMeY]LIEGGPSSGAPPPSC-NH2), the EC50 in test [1] was determined as 0.15 nM; in test [2], 0.112 nM.

The values are drawn from patent US12252524B2, “GIP/GLP1 co-agonist compounds” (Eli Lilly and Company, priority 2018, dated 2025).
